Here are results for 16 molecules from patent US20240260575A1, “AGRICULTURAL AND HORTICULTURAL FUNGICIDAL COMPOSITION” (Nippon Soda Co., Ltd., priority 2021, published 2024).

Assay [1] has as its system cucumber powdery mildew pathogen (Sphaerotheca fuliginea). Put plainly: Cucumber powdery mildew control test. The assay is classed as in vivo. Further details: scale not given here. The text has this: (Test Example) Cucumber Powdery Mildew Control Test 1) Preparation of Drug Solution for Test […] The other components (II) were each formulated into an aqueous solution or suspension having a predetermined concentration. 2) Test A mixed solution of a component (I) and a component (II) at a predetermined concentration was sprayed onto cucumber seedlings (variety: “Shimo-shirazu, creeping type”, cotyledon stage). After natural drying at room temperature, conidiospores of a cucumber powdery mildew pathogen (Sphaerotheca fuliginea) were inoculated by blushing off, and the seedlings were kept in a thermostatic room at 20° C. using a 12 hour light/dark cycle for 7 to 10 days. The states of lesion development on leaves were examined by comparing with that for the untreated case, and the control values were determined. The test was duplicately carried out. The results are shown in Tables 8 to 12 together with expected values calculated as follows. Expected values were calculated by using Colby's equation: […] Here, E denotes an expected value of a control value, M denotes a control value in using a component (I) alone, and N denotes a control value in using a component (II) alone. If the actually measured control value of a composition of a component (I) and a component (II) is higher than the expected value, E, the composition of a component (I) and a component (II) is said to have exerted synergistic effect.

Assay [2] relates to gray mold pathogen (Botrytis cinerea). Put plainly: Gray mold antimicrobial test (growth inhibition rate). More on the design: growth inhibition rate, component (II) alone: concentration or dose not given beside the values. The class given is cell-based. As for the experimental part:
(Test Example) Gray Mold Antimicrobial Test (Growth Inhibition Rate)
Conidiospores of a gray mold pathogen (Botrytis cinerea) were added to and dispersed in a yeast extract sucrose medium, and a component (I) and a component (II) dissolved in dimethyl sulfoxide at predetermined concentrations were further added and mixed thereto, and the resulting solution was dispensed onto a 96-well microplate and cultivated in the dark at 20° C. for 3 to 5 days. After the cultivation, the turbidity at a wavelength of 405 nm was measured by a microplate reader and compared with that in the untreated case to determine the growth inhibition rate (%) for the gray mold pathogen. The test was duplicately carried out. The results are shown in Tables 3 to 7 together with expected values calculated as follows.
Expected values were calculated by using Colby's equation: E=M+N−MN/100. Here, E denotes an expected value (%) of a growth inhibition rate, M denotes a growth inhibition rate (%) in using a component (I) alone, and N denotes a growth inhibition rate (%) in using a component (II) alone.
If the actually measured growth inhibition rate (%) of a composition of a component (I) and a component (II) is higher than the expected value, E, the composition of a component (I) and a component (II) is said to have exerted synergistic effect.

Setting [3] is: Table 8, ppm or dilution rate: Thiophanate-methyl 1.6, Triflumizole 25, Cyflufenamid 1.6, Iminoctadine acetate 0.25, Iminoctadine albesilate 1, Picarbutrazox 2000, Ipflufenoquin 1, Bacillus subtilis ×250, Pseudomonas rhodesiae ×2000, Sodium hydrogen carbonate 250, Potassium bicarbonate 250, Orange oil 4000, Linalool 4000, Thymol 100, Neem oil 2000, Prothioconazole 1.6, Mancozeb 63, Mineral oil 500.

Setting [4] is: Table 9, ppm or dilution rate: Thiophanate-methyl 1.6, Triflumizole 25, Cyflufenamid 1.6, Iminoctadine acetate 0.25, Iminoctadine albesilate 1, Picarbutrazox 2000, Ipflufenoquin 1, Bacillus subtilis ×250, Pseudomonas rhodesiae ×2000, Sodium hydrogen carbonate 250, Potassium bicarbonate 250, Orange oil 1000, Linalool 4000, Thymol 100, Neem oil 2000, Prothioconazole 1.6, Mancozeb 63, Mineral oil 500.

[5] abbreviates: Table 10, ppm or dilution rate: Thiophanate-methyl 1.6, Triflumizole 25, Cyflufenamid 1.6, Iminoctadine acetate 0.25, Iminoctadine albesilate 1, Picarbutrazox 2000, Ipflufenoquin 1, Bacillus subtilis ×1000, Pseudomonas rhodesiae ×2000, Sodium hydrogen carbonate 250, Potassium bicarbonate 250, Orange oil 1000, Linalool 4000, Thymol 100, Neem oil 2000, Prothioconazole 1.6, Mancozeb 63, Mineral oil 5.

[6] abbreviates: Table 11, ppm or dilution rate: Thiophanate-methyl 1.6, Triflumizole 25, Cyflufenamid 1.6, Iminoctadine acetate 1, Iminoctadine albesilate 1, Picarbutrazox 2000, Ipflufenoquin 1, Bacillus subtilis ×1000, Pseudomonas rhodesiae ×2000, Sodium hydrogen carbonate 250, Potassium bicarbonate 250, Orange oil 1000, Linalool 4000, Thymol 100, Neem oil 2000, Prothioconazole 1.6, Mancozeb 63, Mineral oil 500.

The mark [7] stands for this setting: Table 12, ppm or dilution rate: Thiophanate-methyl 1.6, Triflumizole 25, Cyflufenamid 1.6, Iminoctadine acetate 0.25, Iminoctadine albesilate 1, Picarbutrazox 2000, Ipflufenoquin 1, Bacillus subtilis ×1000, Pseudomonas rhodesiae ×2000, Sodium hydrogen carbonate 1000, Potassium bicarbonate 250, Orange oil 1000, Linalool 4000, Thymol 400, Neem oil 2000, Prothioconazole 1.6, Mancozeb 63, Mineral oil.

[8] abbreviates: Table 3, ppm: Ipflufenoquin 10, Cyflufenamid 10, Thiophamate-methyl 0.4, Iminoctadine acetate 0.08, Iminoctadine albesilate 0.08, Triflumizole 0.0032, Picarbutrazox 0.08, Prothioconazole 0.0032, Mefentrifluconazole 0.00064, Cymoxanil 10, Fludioxonil 0.016, Metyltetraprole 0.4, Florylpicoxamid 0.08, Fluxapyroxad 0.08, Fluopyram 0.4, Potassium phosphite 10, Fipronil 2, Chlorantraniliprole 0.016, Aba.

The mark [9] stands for this setting: Table 4, ppm: Ipflufenoquin 10, Cyflufenamid 2, Thiophamate-methyl 0.4, Iminoctadine acetate 0.08, Iminoctadine albesilate 0.4, Picarbutrazox 10, Prothioconazole 0.0032, Mefentrifluconazole 0.0006, Cymoxanil 10, Fludioxonil 0.016, Metyltetraprole 10, Fluxapyroxad 0.016, Fluopyram 0.4, Potassium phosphite 10, Fipronil 2, Chlorantraniliprole 0.016, Abamectin 0.016, Sulfoxaflor 10, Tebufenozide 0.016.

[10] abbreviates: Table 5, ppm: Ipflufenoquin 10, Cyflufenamid 10, Thiophamate-methyl 0.4, Iminoctadine albesilate 0.4, Picarbutrazox 0.0032, Mefentrifluconazole 0.0006, Cymoxanil 10, Captan 0.0032, Fludioxonil 0.016, Metyltetraprole 10, Florylpicoxamid 0.0001, Fluxapyroxad 0.016, Fluopyram 0.0032, Potassium phosphite 0.08, Fipronil 2, Chlorantraniliprole 0.016, Abamectin 0.4, Sulfoxaflor 0.4, Tebufenozide 10.

Setting [11] is: Table 6, ppm: Ipflufenoquin 10, Cyflufenamid 0.08, Thiophamate-methyl 2, Triflumizole 0.08, Picarbutrazox 0.0016, Prothioconazole 0.0006, Mefentrifluconazole 0.08, Cymoxanil 0.08, Captan 0.08, Fludioxonil 0.016, Metyltetraprole 10, Florylpicoxamid 0.0006, Fluxapyroxad 0.0032, Fluopyram 0.016, Potassium phosphite 0.016, Fipronil 10, Chlorantraniliprole 0.08, Abamectin 2, Sulfoxaflor 0.08, Tebufenoz.

[12] abbreviates: Table 7, ppm: Ipflufenoquin 0.08, Cyflufenamid 0.08, Thiophamate-methyl 2, Iminoctadine acetate 0.0001, Iminoctadine albesilate 0.4, Triflumizole 0.4, Prothioconazole 0.0032, Mefentrifluconazole 0.08, Cymoxanil 0.08, Captan 0.08, Fludioxonil 0.08, Metyltetraprole 0.0032, Florylpicoxamid 0.0006, Fluxapyroxad 0.016, Fluopyram 0.0032, Potassium phosphite 0.016, Fipronil 2, Chlorantraniliprole 0.016.

On to `Cc1nc2c(F)c(F)ccc2cc1Oc1cccc(F)c1C(C)(C)O` [Ipflufenoquin], for which the “control value, component (II) alone” value in assay [1] (setting [3]), in assay [1] (setting [4]), in assay [1] (setting [5]), in assay [1] (setting [6]) and in assay [1] (setting [7]) was 27 in each case. For the same molecule, the “growth inhibition rate, component (II) alone” value (“growth inhibition rate” for short) in assay [2] (setting [8]) worked out at 4%; in assay [2] (setting [9]), 4%; in assay [2] (setting [10]), 4%; in assay [2] (setting [11]), 4%; in assay [2] (setting [12]), 0%.

For the molecule `Cc1cccc(-n2nnn(C)c2=O)c1COc1ccn(-c2ccc(Cl)cc2)n1` [Metyltetraprole], the “growth inhibition rate” value is 0% in assay [2] (setting [8]); 52% in assay [2] (setting [9]); 33% in assay [2] (setting [10]); 33% in assay [2] (setting [11]); 0% in assay [2] (setting [12]).

Turning to `COc1ccnc(C(=O)N[C@@H](C)C(=O)O[C@@H](C)C(c2ccc(F)cc2)c2ccc(F)cc2)c1OC(C)=O` [Florylpicoxamid], the “growth inhibition rate” value was 13% in assay [2] (setting [8]), 0% in assay [2] (setting [10]), 8% in assay [2] (setting [11]) and 6% in assay [2] (setting [12]).

On to `O=C(Cc1ccccc1)N/C(=N\OCC1CC1)c1c(C(F)(F)F)ccc(F)c1F` [Cyflufenamid], for which the “control value, component (II) alone” value in assay [1] (setting [3]), in assay [1] (setting [4]), in assay [1] (setting [5]), in assay [1] (setting [6]) and in assay [1] (setting [7]) was 50 throughout.

On to Potassium phosphite, for which the “growth inhibition rate” value in assay [2] (setting [8]) amounted to 0%; in assay [2] (setting [9]), 0%; in assay [2] (setting [10]), 0%; in assay [2] (setting [11]), 1%; in assay [2] (setting [12]) it was 12%.

Turning to `CC(O)(Cn1cncn1)c1ccc(Oc2ccc(Cl)cc2)cc1C(F)(F)F` (stereo not drawn) [Mefentrifluconazole], the “growth inhibition rate” value in assay [2] (setting [8]) came to 0%; in assay [2] (setting [9]), 0%; in assay [2] (setting [10]), 48%; in assay [2] (setting [11]), 37%; in assay [2] (setting [12]), 34%.

`CCCOC/C(=N\c1ccc(Cl)cc1C(F)(F)F)n1ccnc1` [Triflumizole]: the “control value, component (II) alone” value in assay [1] (setting [3]), in assay [1] (setting [4]), in assay [1] (setting [5]), in assay [1] (setting [6]) and in assay [1] (setting [7]) was 27 throughout.

As to `C=CC(C)(O)CCC=C(C)C` (stereo not drawn) [Linalool], the “control value, component (II) alone” value in assay [1] (setting [3]) is recorded as 27; in assay [1] (setting [4]), 27; in assay [1] (setting [5]) it was 17; in assay [1] (setting [6]), 17; in assay [1] (setting [7]) it was 27.

As to `O=C([O-])O.[Na+]` [Sodium hydrogen carbonate], the “control value, component (II) alone” value in assay [1] (setting [3]), in assay [1] (setting [4]), in assay [1] (setting [5]), in assay [1] (setting [6]) and in assay [1] (setting [7]) was 33 each time.

Consider Mancozeb, for which the “control value, component (II) alone” value in assay [1] (setting [3]), in assay [1] (setting [4]), in assay [1] (setting [5]), in assay [1] (setting [6]) and in assay [1] (setting [7]) was 17 throughout.

`COC(=O)NC(=S)Nc1ccccc1NC(=S)NC(=O)OC` [Thiophanate-methyl]: the “control value, component (II) alone” value in assay [1] (setting [3]) turned out to be 83; in assay [1] (setting [4]), 83; in assay [1] (setting [5]) it was 0; in assay [1] (setting [6]) it was 67; in assay [1] (setting [7]) it was 17.

On to Abamectin, for which the “growth inhibition rate” value in assay [2] (setting [8]) was determined as 0%; in assay [2] (setting [9]), 0%; in assay [2] (setting [10]), 64%; in assay [2] (setting [11]) it was 12%; in assay [2] (setting [12]), 0%.

For `Cc1ccc(C(C)C)c(O)c1` [Thymol], the “control value, component (II) alone” value is 17 in assay [1] (setting [3]); 17 in assay [1] (setting [4]); 17 in assay [1] (setting [5]); 17 in assay [1] (setting [6]); 50 in assay [1] (setting [7]).

Turning to `Cn1cc(C(=O)Nc2ccccc2-c2cc(F)c(F)c(F)c2)c(C(F)F)n1` [Fluxapyroxad], the “growth inhibition rate” value in assay [2] (setting [8]) is recorded as 8%; in assay [2] (setting [9]), 10%; in assay [2] (setting [10]), 10%; in assay [2] (setting [11]), 10%; in assay [2] (setting [12]) it was 11%.

Regarding `OC(Cc1ccccc1Cl)(Cn1nc[nH]c1=S)C1(Cl)CC1` (stereo not drawn) [Prothioconazole], the “control value, component (II) alone” value in assay [1] (setting [3]) is 50; in assay [1] (setting [4]), 0; in assay [1] (setting [5]) it was 17; in assay [1] (setting [6]), 0; in assay [1] (setting [7]), 0.

In the case of `O=C([O-])O.[K+]` [Potassium bicarbonate], the “control value, component (II) alone” value in assay [1] (setting [3]) came to 64; in assay [1] (setting [4]), 64; in assay [1] (setting [5]), 17; in assay [1] (setting [6]), 64; in assay [1] (setting [7]) it was 64.
